≈ marks a conversion by molar mass, not a printed value.
How the values were obtained:
[1] = pH-dependent solubility of (Z)-endoxifen; format: physicochemical; conditions: for solubility: read-out: Solubility Z-form
Procedure: This example describes pH-dependent solubility of (Z)-endoxifen. (Z)-endoxifen was dissolved in solution under different pH conditions, and the solubility was measured. Since (Z)-endoxifen converts to the E-form under acidic conditions, the solubility of (Z)-endoxifen and (E)-endoxifen were measured independently, and a ratio of Z-form to E-form was determined.

[2] = Solubility of (Z)-endoxifen at pH 6.8 with and without Polysorbate 80; format: physicochemical
Procedure: This example describes development of a dissolution assay to measure dissolution of endoxifen formulations. Since solubility of endoxifen decreases as pH becomes less acidic, as shown in EXAMPLE 1, additional experiments were performed to improve solubility of endoxifen in the pH 6.8 buffer solution. Polysorbate 80 (PS80), a nonionic surfactant, was added in varying concentrations to improve solubility and mimic an intestinal environment. Surfactants, such as polysorbate 80, create micelles in the medium that mimic the bile acid aggregates in the small intestine. These micelles facilitate the diffusion and transport of product into the medium.

CC/C(=C(\c1ccc(O)cc1)c1ccc(OCCNC)cc1)c1ccccc1 [(Z)-endoxifen]
Z-form to E-form equilibration ([1]; pH 6.8): below the limit of detection | solubility ([1]; solution at pH 1.2, pH 1.2, simulated gastric fluid): 1050 µg/mL (≈ 2800 µM) | solubility ([1]; solution at pH 4.5, pH 4.5, aqueous buffer): 250 µg/mL (≈ 668 µM) | solubility ([1]; solution at pH 5.0, pH 5, aqueous buffer): 203 µg/mL (≈ 543 µM) | solubility ([1]; solution at pH 5.5, pH 5.5, aqueous buffer): 43.5 µg/mL (≈ 116 µM) | solubility ([1]; solution at pH 6.0, pH 6, aqueous buffer): 27.8 µg/mL (≈ 74.4 µM) | solubility ([1]; solution at pH 6.8, pH 6.8, aqueous buffer): 4.26 µg/mL (≈ 11.4 µM) | solubility ([1]; water): 0.78 µg/mL (≈ 2.09 µM) | solubility ([2]; aqueous buffer, pH 6.8 Buffer (Control), no Polysorbate 80): 8.14 µg/mL (≈ 21.8 µM) | solubility ([2]; pH 6.8 buffer with 0.5% Polysorbate 80, pH 6.8, aqueous with cosolvent or surfactant or cyclodextrin): 58.3 µg/mL (≈ 156 µM) | solubility ([2]; pH 6.8 buffer with 1.0% Polysorbate 80, pH 6.8, aqueous with cosolvent or surfactant or cyclodextrin): 62.1 µg/mL (≈ 166 µM)
